Laboratory results published in patent publication US20080269343A1, “GALENIC FORMULATIONS OF ORGANIC COMPOUNDS” (priority 2004, published 2008).

Assays:
Type in all cases: in vivo, human
[1] = Steady-state pharmacokinetics of aliskiren 300 mg alone, furosemide interaction study, Day 13 (Example 6); conditions: 300 mg daily, Day 13, healthy volunteers N 21; for AUC / Cmax / Tmax: both sexes, human, in vivo, oral, 300 mg
Experimental: An open-label, 2-period study in healthy subjects was carried out to evaluate the pharmacokinetic drug-drug interaction between furosemide and aliskiren when given alone or in combination. A total of 22 healthy male and female volunteers enrolled and 21 completed all study procedures and treatments. The subjects were admitted to the study center for at least 12 hours prior to the initial dosing for baseline evaluation, and confined to the clinic for entire study. Subjects were given an end-of-study evaluation on Day 17 approximately 24 h after the last treatment of aliskiren. For all treatment periods, subjects fasted for a minimum of 10 hours pre-dose to 4 hours post-dose. Subjects were considered to have completed the study when all safety and pharmacokinetic evaluations had been completed.
In Period 1 (Study Days 1-3), subjects received a single 20 mg daily dose of furosemide. In Period 2 (Study Days 7-16), subjects received 300 mg of aliskiren once a day for a total of 10 days with a single 20 mg daily dose of furosemide co-administered for three days (Study Days 14-16), starting Day 14 of the study. There was a three day wash out between Period 1 and 2 (Study Days 4-6).
Pharmacokinetic blood sampling for aliskiren alone occurred on Study Day 13 up to 24 hours post-dose (5-mL blood samples were collected into lithium heparin tubes on Day 13 of the study at pre-dose, 0.5, 1, 2, 4, 6, 8, 12, 16 and 24 hours after dosing).

[2] = Steady-state pharmacokinetics of aliskiren 300 mg alone, hydrochlorothiazide interaction study, Day 15 (Example 7); conditions: 300 mg daily, Day 15, healthy volunteers N 22; for AUC / Cmax / Tmax: both sexes, human, in vivo, oral, 300 mg
Experimental: The study employed was an open-label, two-period, multiple dose design to evaluate the pharmacokinetic drug-drug interaction between hydrochlorothiazide (HCTZ) and aliskiren when given alone or in combination to healthy volunteers. After screening, a total of 22 healthy male and female volunteers were enrolled into the study. The subjects were admitted to the study center at least 12 hours prior to the initial dosing of HCTZ for baseline evaluation. If subjects met all eligibility criteria at baseline, they were randomized into the study and confined to the clinic until study completion. All study medications were taken under fasted conditions. The subjects remained in bed for at least 4 hours after dosing on PK sampling days. The study was completed with the end of study evaluations on Day 20, after the last blood sample was collected.
In period 1 (study Days 1-4), subjects received a single 25 mg daily dose of HCTZ. Period 1 was followed by a 4 day washout period, study Days 5-8. In period 2 (study Days 9-19), subjects received 300 mg of aliskiren once a day for a total of 11 days (Days 9-19), with a single 25 mg dose of HCTZ co-administered for 4 days (Days 16-19).
Pharmacokinetic blood sampling for aliskiren alone occurred on study Day 15 up to 24 hours post-dose (5-mL blood samples were collected into lithium heparin tubes on Day 15 of the study at pre-dose, 0.5, 1, 2, 3, 4, 6, 8, 12, 16 and 24 hours after dosing).

[3] = Steady-state pharmacokinetics of aliskiren 300 mg alone, digoxin interaction study, Day 7 (Example 8); conditions: 300 mg daily, Day 7, healthy volunteers N 21; for AUC / Cmax / Tmax: human, in vivo, oral, 300 mg
Experimental: The study employed was an open-label, two-period, multiple-dose design to evaluate the pharmacokinetic drug-drug interaction between digoxin and aliskiren when given alone or in combination to healthy volunteers. A total of 22 healthy volunteers were enrolled into the study. The subjects were admitted to the study center at least 24 hours prior to the initial dosing of aliskiren for baseline evaluation. If subjects met all eligibility criteria at baseline, they were randomized into the study and confined to the clinic on days 1-7 and days 17-33. All study medications were taken under fasted condition. The study was completed with the end of study evaluations on Day 34, after the last blood sample was collected.
In period 1 (Days 1-7), subjects received a single 300 mg daily dose of aliskiren for 7 days. Period 1 was followed by a ten (10) day washout period. In period 2, subjects received a single 0.25 mg daily dose of digoxin for 9 days (Days 18-26) and aliskiren 300 mg once a day with a single 0.25 mg daily dose of digoxin co-administered for 7 days (Days 27-33).
Pharmacokinetic blood sampling for aliskiren alone occurred on Day 7 up to 24 hours post dose (5-mL blood samples were collected into lithium heparin tubes on Day 7 of the study at pre-dose, 0.5, 1, 2, 3, 4, 6, 8, 12, 16 and 24 hours after dosing).

Structure (SMILES): COCCCOc1cc(C[C@@H](C[C@H](N)[C@@H](O)C[C@H](C(=O)NCC(C)(C)C(N)=O)C(C)C)C(C)C)ccc1OC [aliskiren, 2(S),4(S),5(S),7(S)—N-(3-amino-2,2-dimethyl-3-oxopropyl)-2,7-di(1-methylethyl)-4-hydroxy-5-amino-8-[4-methoxy-3-(3-methoxy-propoxy)phenyl]-octanamide]
- AUCτ ([1]; Max): 3973 ng·h/mL
- Cmax^SS ([1]; Max): 652 ng/mL
- Cmin^SS ([1]; Max): 52.30 ng/mL
- tmax^SS ([1]; Max): 6.0 h
- Cmin^SS ([1]; Median): 24.40 ng/mL
- AUCτ ([1]; Min): 471 ng·h/mL
- Cmax^SS ([1]; Min): 116 ng/mL
- Cmin^SS ([1]; Min): 6.26 ng/mL
- tmax^SS ([1]; Min): 0.5 h
- Cmin^SS ([1]; arithmetic mean): 25.80 ng/mL
- AUC ([1]; Median): 1810 ng·h/mL
- Cmax ([1]; Median): 284 ng/mL
- Tmax ([1]; Median): 1 h
- AUC ([1]; arithmetic mean): 1890 ng·h/mL
- Cmax ([1]; arithmetic mean): 334 ng/mL
- Tmax ([1]; arithmetic mean): 1.5 h
- Cmin^SS ([2]; Geometric Mean): 32.5 ng/mL
- AUCτ ([2]; Max): 3801 ng·h/mL
- Cmax^SS ([2]; Max): 872.0 ng/mL
- Cmin^SS ([2]; Max): 56.5 ng/mL
- tmax^SS ([2]; Max): 6.00 h
- Cmin^SS ([2]; Median): 35.4 ng/mL
- AUCτ ([2]; Min): 512 ng·h/mL
- Cmax^SS ([2]; Min): 27.3 ng/mL
- Cmin^SS ([2]; Min): 13.4 ng/mL
- tmax^SS ([2]; Min): 0.50 h
- Cmin^SS ([2]; arithmetic mean): 35.0 ng/mL
- AUC ([2]; Geometric Mean): 2070 ng·h/mL
- Cmax ([2]; Geometric Mean): 354 ng/mL
- Tmax ([2]; Geometric Mean): 1.84 h
- AUC ([2]; Median): 2320 ng·h/mL
- Cmax ([2]; Median): 406 ng/mL
- Tmax ([2]; Median): 2.24 h
- AUC ([2]; arithmetic mean): 2310 ng·h/mL
- Cmax ([2]; arithmetic mean): 425 ng/mL
- Tmax ([2]; arithmetic mean): 2.23 h
- Cmin^SS ([3]; Geometric Mean): 25.4 ng/mL
- AUCτ ([3]; Max): 2710 ng·h/mL
- Cmax^SS ([3]; Max): 478 ng/mL
- Cmin^SS ([3]; Max): 41.5 ng/mL
- tmax^SS ([3]; Max): 6.00 h
- Cmin^SS ([3]; Median): 24.1 ng/mL
- AUCτ ([3]; Min): 943 ng·h/mL
- Cmax^SS ([3]; Min): 131 ng/mL
- Cmin^SS ([3]; Min): 13.1 ng/mL
- tmax^SS ([3]; Min): 0.50 h
- Cmin^SS ([3]; arithmetic mean): 26.5 ng/mL
- AUC ([3]; Geometric Mean): 1600 ng·h/mL
- Cmax ([3]; Geometric Mean): 246 ng/mL
- Tmax ([3]; Geometric Mean): 1.39 h
- AUC ([3]; Median): 1560 ng·h/mL
- Cmax ([3]; Median): 234 ng/mL
- Tmax ([3]; Median): 1 h
- AUC ([3]; arithmetic mean): 1670 ng·h/mL
- Cmax ([3]; arithmetic mean): 261 ng/mL
- Tmax ([3]; arithmetic mean): 1.93 h
